Results on twelve sequences are retold here after patent US10138271B2, “Native and agonist CTL epitopes of the MUC1 tumor antigen” (The United States of America, as represented by the …, priority 2012, dated 2018).

Experiment [1] deals with MUC1-C-specific T-cell lines. Put plainly: IFN-γ release by MUC1-C-specific T-cell lines stimulated with peptide-pulsed autologous B cells (ELISA). Type of experiment: cell-based, human. As to conditions: for IFN-γ: T-cell line generated with and stimulated by the same peptide, APC:T 2:1, 24 hour supernatant; for IFN-γ production by agonist peptide-specific T-cell line, agonist versus native peptide: at each peptide concentration, FIG. 1A-C. As to the method: Supernatants of T cells stimulated for 24 h with peptide-pulsed autologous DCs or autologous EBV-transformed B cells in IL-2-free medium at various peptide concentrations were screened for secretion of IFN-γ by ELISA kit (BioSource International, Camarillo, Calif.). Results were expressed in pg/mL.
To evaluate the specificity of these T-cell lines, an IFN-γ release assay was performed using irradiated autologous B cells pulsed with the corresponding peptide. T cells were stimulated with irradiated autologous B cells pulsed with corresponding peptide at an APC:T cell ratio of 2:1. T cells were used at a concentration of 5×10^5/mL. 24 hour culture supernatants were collected and screened for secretion of IFN-γ. T-1-P1172(1Y), T-1-P1177(10V), and T-2-P1240(1Y) cell lines produced higher levels of IFN-γ compared to T-cell lines generated using corresponding native peptides (Table 2).
Studies were then conducted to compare the ability of the native peptides and the agonist peptides, at various concentrations, to activate the agonist peptide-specific T cells.
An additional T-cell line was then established from the PBMCs of another patient (patient 3) with colon cancer from the same clinical trial described above, using P1177 and P1177(10V), designated T-3-P1177 and T-3-P1177(10V), respectively.

The subject of experiment [2] is T-VNTR-5 T cell line. Put plainly: IFN-γ production by VNTR-5-specific T cell line stimulated with agonist or native peptide. Type of experiment: cell-based, human. The settings on record: APC:T 3:1, 24 hours. The procedure:
(§1) T-VNTR-3 (VNTR-3 agonist peptide-specific T cell line) and T-VNTR-5 (VNTR-5 agonist peptide-specific T cell line) were separately cultured at a concentration of 1×10^5 cells/mL. The ratio of APC:T cells was 3:1. The agonist or native peptides were used at various concentrations (see Tables 14 and 15). The supernatents were collected after 24 hours, and the amount of IFN-γ was determined. The VNTR-3- and VNTR-5-specific T cell lines stimulated with agonist peptides produced higher levels of IFN-γ as compared to stimulation with native peptides (see Tables 14 and 15).

For experiment [3], the target named is T1, HLA-A2 molecules (Homo sapiens, UniProt P04439, D140Y/D185E/D98H/E176V/E277Q/G131W/G231S/I119V/I121R/I166T/I218V/L300P/L318F/N151K/N90K/P208A/P217A/Q86G/Q94H/R138H/R169H/T345S).
T1 construct: endogenous in cells; host or cells: T2 / T2A2 cells (174CEM-T2, transport deletion mutant)
Put plainly: Peptide binding to HLA-A2: upregulation of HLA-A2 expression on T2/T2A2 cells by flow cytometry. As to conditions: for T2 Binding (mean fluorescence intensity): peptide 12.5 μg/mL; for T2A2 Binding (mean fluorescence intensity): peptide 25 μg/mL. The procedure:
Single-color flow cytometric analysis has been previously described in Guadagni et al., Cancer Res., 50: 6248-6255 (1990). Briefly, cells were washed 3 times with cold Ca2^+- and Mg2^+-free Dulbecco's phosphate-buffered saline (PBS), and then stained for 1 h at 4° C. using FITC-conjugated monoclonal antibodies anti-HLA-A2,28 (One Lambda, Inc., Canoga Park, Calif.), anti-CD3, anti-CD4, and anti-CD8 (BD Biosciences, San Jose, Calif.). Mouse IgG2a, k FITC (BD Biosciences) was used as isotype control. The cells were then washed 3 times with cold Ca2^+- and Mg2^+-free PBS, resuspended in the same buffer, and immediately analyzed using a FACScan (Becton Dickinson, Franklin Lakes, N.J.) and CellQuest software (BD Biosciences). Results were generated from data gathered from 10,000 live cells and expressed as percent-positive cells and mean fluorescence intensity (MFI). The MFI value was collected in log scale and used to express levels of fluorescence determined by measuring the average for all cells in the fluorescence dot plot.

Experiment [4] has as its system T-VNTR-3 T cell line. The experiment is described as follows: IFN-γ production by VNTR-3-specific T cell line stimulated with agonist or native peptide. As to conditions: APC:T 3:1, 24 hours. Type of experiment: cell-based, human. As to the method: as §1
The target in experiment [5] is T1, HLA-A2 molecules. The experiment is described as follows: Stability of peptide/HLA-A2 complexes (percentage of remaining complexes over time). Type of experiment: binding. As to conditions: time points 0, 2, 4, 6, 8, 10 h. As to the method:
The stability of the peptide/HLA-A2 complexes of the analogs and native peptides were analyzed by determining the percentage of the remaining complexes on HLA-A2 molecules at different time points (0, 2, 4, 6, 8, and 10 h).
The stability of the peptide/HLA-A2 complexes of the analogs and native peptides was analyzed by determining the percentage of the remaining complexes on HLA-A2 molecules at different time points (0, 2, 4, 6, 8, and 10 h).

ALAIVYLIAL [Peptide P1172] came in with an IFN-γ in experiment [1] of 158.3 pg/mL.
For APDTRPAPG [VNTR-4], the IFN-γ in experiment [2] (peptide 1.56 μg/mL) is given as 19.8 pg/mL; in experiment [2] (peptide 3.13 μg/mL), 53.2 pg/mL; in experiment [2] (peptide 6.25 μg/mL), 63.1 pg/mL; in experiment [2] (peptide 12.5 μg/mL), 109.3 pg/mL; in experiment [2] (peptide 25 μg/mL), 117.9 pg/mL.
For GLFDEYLEMV [NGEP (P703)], in experiment [3], the “T2 Binding (mean fluorescence intensity)” value is 481.93 MFI and the “T2A2 Binding (mean fluorescence intensity)” value was determined as 485.3 MFI.
HLFGYSWYK [CAP-7]: in experiment [3], the “T2 Binding (mean fluorescence intensity)” value was 109.1 MFI and the “T2A2 Binding (mean fluorescence intensity)” value is given as 83.8 MFI.
For SLSYTNPAV [Peptide P1240], in experiment [1], the IFN-γ was 437.3 pg/mL.
STAPPAHGV [VNTR-2]: the IFN-γ came to 29.0 pg/mL in experiment [4] (peptide 1.56 μg/mL); 75.8 pg/mL in experiment [4] (peptide 3.13 μg/mL); 127.0 pg/mL in experiment [4] (peptide 6.25 μg/mL); 203.0 pg/mL in experiment [4] (peptide 12.5 μg/mL); 261.0 pg/mL in experiment [4] (peptide 25 μg/mL).
YLAIVYLIAL [P1172(1Y)]: in experiment [5], the “Stability of peptide/HLA-A2 complexes, analog versus native peptide” value was “No differences”. In addition, in experiment [1], the IFN-γ came to 605.0 pg/mL and the “IFN-γ production by agonist peptide-specific T-cell line, agonist versus native peptide” value (shortened to “IFN-γ production … agonist versus native peptide”) is recorded as “greatest level of IFN-γ production”.
Regarding YLAPPAHGV [VNTR-3], the “Stability of peptide/HLA-A2 complexes, analog versus native peptide” value in experiment [5] is recorded as “greater avidity for class I molecules than the native peptides”. In addition, the IFN-γ is listed as 304.9 pg/mL in experiment [4] (peptide 1.56 μg/mL); 457.6 pg/mL in experiment [4] (peptide 3.13 μg/mL); 685.3 pg/mL in experiment [4] (peptide 6.25 μg/mL); 766.1 pg/mL in experiment [4] (peptide 12.5 μg/mL); 771.5 pg/mL in experiment [4] (peptide 25 μg/mL).
Regarding YLDTRPAPV [VNTR-5], the “Stability of peptide/HLA-A2 complexes, analog versus native peptide” value in experiment [5] is “greater avidity for class I molecules than the native peptides”. The IFN-γ in experiment [2] (peptide 1.56 μg/mL) is given as 205.1 pg/mL; in experiment [2] (peptide 3.13 μg/mL), 322.0 pg/mL; in experiment [2] (peptide 6.25 μg/mL), 452.9 pg/mL; in experiment [2] (peptide 12.5 μg/mL), 496.2 pg/mL; in experiment [2] (peptide 25 μg/mL) it was 543.7 pg/mL.
For the sequence YLIALAVCQC [Peptide P1177], the IFN-γ in experiment [1] turned out to be 666.4 pg/mL.
As for YLIALAVCQV [P1177(10V)], the “Stability of peptide/HLA-A2 complexes, analog versus native peptide” value in experiment [5] is recorded as “greater avidity for class I molecules than the native peptide P1177 at each time point”. For the same sequence, in experiment [1], the IFN-γ is on record as >1,000 pg/mL and the “IFN-γ production … agonist versus native peptide” value was “greatest level of IFN-γ production”.
For the sequence YLSYTNPAV [P1240(1Y)], the “Stability of peptide/HLA-A2 complexes, analog versus native peptide” value in experiment [5] was “No differences”. In addition, in experiment [1], the IFN-γ was >1,000 pg/mL and the “IFN-γ production … agonist versus native peptide” value was “greatest level of IFN-γ production”.
